In this assay the test system is switchgrass "Alamo". Put plainly: Sugar content of switchgrass after isoxaben (Example 6). The assay is classed as in vivo. Conditions: 1120 g ai/ha + 1% v/v crop oil concentrate POST; harvested 8 weeks after application; % of fresh weight basis. The procedure:
Switchgrass was harvested 8 weeks after application and three replicates were analyzed compared with an untreated check. Sugar content was assessed on a percentage of the fresh weight and values were converted to a percentage of values derived from the untreated control. Isoxaben increased fructose by 44%, glucose by 33%, and total sugars by 38% in comparison to the untreated check. Switchgrass is currently under evaluations as a biofuels crop whereby enhanced sugar output per acre is desired.

Consider `CCC(C)(CC)c1cc(NC(=O)c2c(OC)cccc2OC)on1` [Isoxaben, isoxaben], for which the “fructose increase in comparison to the untreated check” value is 44%, the “glucose increase in comparison to the untreated check” value is 33% and the “total sugars increase in comparison to the untreated check” value is listed as 38%.

The record behind these values is US20110053773A1, “METHODS OF IMPROVING NUTRITIONAL VALUE OF PLANTS” (UNIVERSITY OF TENNESSEE RESEARCH FOUNDATION, priority 2009, published 2011).
